Test results: patent US20230248745A1, “SILVER ENHANCED CANNABINOID ANTIBIOTICS” (priority 2020, published 2023)
“Also recorded” adds a separate entry of the source. Where two headings read alike, the source gives them in different places.

Assays:
MRSA (USA300) = test: Checkerboard assay, FICI of cannabinoid/silver combinations; format: cell-based, Methicillin-resistant Staphylococcus aureus
Procedure: (§1) Antibacterial growth was measured using a checkerboard analysis or qualitatively using agar plates with zones of inhibition. Viability was measured by the number of colony forming units (CFU) over time.
(§2) Using checkerboard analysis, the fractional inhibitory concentration index (FICI) was calculated for the 96-well plate test to illustrate synergy.
(§3) MRSA strain, USA300, was cultured in Luria-Bertani (LB) medium and inoculated at 37 C.
(§4) Cannabinoids or silver (expressed as the concentration of silver not the salt) were serially diluted 2-fold across the 96-well plate (Costar, catalog no. 3370) followed by addition of 100 μL of bacterial cultures with an OD600 of 0.0025. […] Wells turbidity were then analyzed using Varioskan™ microplate reader.
(§5) FICI was calculated in a checkerboard assay based on the turbidity of the wells. FIC of each agent was determined as the ratio of the minimal inhibitory concentration MIC of one agent in the presence of the other agent to the MIC of that agent alone. FICI was consequently computed as the sum of each agent's FIC.

E. coli (strain K12) = test: Kill-curve test (CFU over time); format: cell-based, Escherichia coli; conditions: for inhibitory effect on E. coli growth over 24 hours / inhibition of E. coli growth over 24 hours / inhibition of E. coli growth (summary): cannabinoid alone; for inhibitory effect on E. coli growth over 24 hours: 8 mg/L; for inhibition of E. coli growth over 24 hours: 16 mg/L; for inhibition of E. coli growth (summary): concentrations up to 16 mg/L
Procedure: as §1
(§6) Escherichia coli (E. coli), strain K12, was cultured in Luria-Bertani (LB) medium and inoculated at 37 C.
(§7) For each test tube, 1 mL of culture at OD600 of 0.005 was added to 1 mL of LB medium containing antibiotics to reach target sub-MIC concentrations of each compound. Samples of 100 μL was extracted from each tube at the determined time stamps followed by 10-fold serial dilutions. 10 μL of each dilution was then added on the LB agar plates that were subsequently incubated for 24 hours. Colonies were inspected and results quantified as log CFU/mL.

E. coli strain K12 = test: Checkerboard assay, FICI of cannabinoid/silver combinations; format: cell-based, Escherichia coli; conditions: for FICI Silver Nanoparticles: Silver Nanoparticles in combination with the cannabinoid; for FICI Silver Sulfate: Silver Sulfate in combination with the cannabinoid
Procedure: as §1, §2, §6, §4, §5

MRSA (strain USA300) [1] = test: Kill-curve test (CFU over time); format: cell-based, Methicillin-resistant Staphylococcus aureus; conditions: for MRSA growth by 24 hours: cannabinoid alone at ½×MIC
Procedure: as §1, §3, §7

MRSA (strain USA300) [2] = test: microbe, parasite or virus in culture; format: cell-based, Methicillin-resistant Staphylococcus aureus; conditions: agent alone, silver expressed as silver
Source text: In therapeutic applications, synergy between active ingredients occurs when an observed combined therapeutic effect is greater than the sum of therapeutic effects of individual active ingredients, or a new therapeutic effect is produced that the active ingredients could not produce alone. […] In this context, the enhancement of therapeutic effect may take the form of increased efficacy or potency and/or decreased adverse effects. The synergistic effect may be mediated in whole or in part by the pharmacokinetics and/or pharmacodynamics of the active ingredients in a subject, so that the amount and proportion of the ingredients in the formulation may be synergistic in vivo. This in vivo synergy may be effected with a formulation that includes the active ingredients in amounts and proportions that are also synergistic in in vitro assays of efficacy. As used herein, the term “synergistically effective amounts” accordingly refers to amounts that are synergistic in vivo and/or in vitro. A numeric quantification of synergy is often expressed as a fractional inhibitory concentration index (FICI), which represents the sum of the fractional inhibitory concentrations (FICs) of each drug tested, where the FIC is determined for each drug by dividing the minimum inhibitory concentration (MIC, the lowest concentration of the drug which prevents visible growth of the bacterium in a standard in vitro assay—standard colorometric assay based on resazurin) of each drug when used in combination by the MIC of each drug when used alone. In very general terms, a FICI lower or higher than 1 indicates positively correlated activity (at least additive or potentiation) or an absence of positive interactions, respectively. […] (as described and used by Joung D K et al. and Rakoliya K et al.)
as §4

MRSA (strain USA 300) = format: cell-based, Methicillin-resistant Staphylococcus aureus; conditions: for inhibition of bacterial growth (ring): single agent at 2% w/w to PVA, films and coated catheter sections, 24 hours
Procedure: PVA films were made by solvent casting using 33 μl drops of 2.5% PVA (88% hydrolyzed, 125 KDa molecular weight) mixed with CBC, CBG or CBGA (2% w/w to PVA). […] 3 mm sections of a urethral catheter (BARDEX® BARD®) were cut and coated with the same 33 μl volume of PVA/Silver/cannabinoid used to make films. Films and coated catheter sections were dried overnight in the dark. Five cavities were created in the LB agar plates containing MRSA (strain USA 300) at OD600 of 0.005. PVA films and catheters coated with PVA films were then placed in the cavities and moistened with 20 μL of deionized distilled water. Plates were incubated for 24 hours at 37° C.

[3] = Silver Nitrate in combination with the cannabinoid
[4] = cannabinoid with silver nitrate
[5] = 8 mg/L cannabinoid + 2.5, 1.25 and 0.625 mg/L AgSO4 (each)
[6] = cannabinoid with silver sulfate
[7] = cannabinoid ½×MIC + AgNP ⅛×MIC (5 mg/L)
[8] = Staphylococcus aureus, read-out: MIC
[9] = cannabinoid with silver nanoparticles
[10] = cannabinoid ½×MIC + silver nitrate 1 mg/L
[11] = cannabinoid ½×MIC + silver nitrate 5 and 8 mg/L

SMILES | FICI (MRSA (USA300); [3]) | interaction (interpretation of FICI) (MRSA (USA300); [4]) | time through which bacterial growth was inhibited (E. coli (strain K12)) [h] | time through which the effect persisted (E. coli (strain K12)) [h] | time to the reduction in E. coli CFU (E. coli (strain K12)) [h] | time through which E. coli growth was inhibited (E. coli (strain K12); [5]) [h] | time to the reduction in E. coli CFU (E. coli (strain K12); [5]) [h] | inhibitory effect on E. coli growth over 24 hours (E. coli (strain K12)) | inhibition of E. coli growth over 24 hours (E. coli (strain K12)) | inhibition of E. coli growth (summary) (E. coli (strain K12)) | FICI Silver Nanoparticles (E. coli strain K12) | FICI Silver Sulfate (E. coli strain K12) | interaction (interpretation of FICI) (E. coli strain K12; [6]) | kill-curve effect (CFU) (MRSA (strain USA300) [1]) | MRSA growth by 24 hours (MRSA (strain USA300) [1]) | kill-curve effect (CFU) (MRSA (strain USA300) [1]; [7]) | time of onset of bactericidal effect (MRSA (strain USA300) [1]; [7]) [h] | time through which bactericidal effect persisted (MRSA (strain USA300) [1]; [7]) [h] | MIC (MRSA (strain USA300) [2]) [mg/L] | MIC (MRSA (strain USA300) [2]; [8]) [mg/L] | further results
CCCCCc1cc2c(c(O)c1C(=O)O)C=CC(C)(CCC=C(C)C)O2 (centres unmarked) [CBCA, cannabichromenic acid] | 2 | no improved antibiotic affect | 24 | 24 | ≤ 4 | 24 | ≤ 6 | failed to achieve any inhibitory effect | failed to achieve any inhibition | fail to achieve any detectable inhibition | 1.25 | 0.50 | synergistic | greater bactericidal effect | returned to levels equal to that of 0×MIC treatment | rapid bactericidal effect | 2 | 24 | 2 | – | time of full elimination of CFU (MRSA (strain USA300) [1]; [7]): 4 h
C=C(C)[C@@H]1CCC(C)=C[C@H]1c1c(O)cc(CCCCC)cc1O [CBD, cannabidiol, reference compound] | 2 | no improved antibiotic affect | – | – | – | – | – | – | no inhibition | fail to achieve any detectable inhibition | 1.25 | 1 | not observed | – | returned to levels equal to that of 0×MIC treatment | rapid bactericidal effect | 2 | – | – | 2 | inhibition of E. coli growth over 24 hours by the combination (E. coli (strain K12); 16 mg/L cannabinoid + 2.5 mg/L AgSO4): did not result in a substantial inhibition; also recorded: no increase in antimicrobial activity; MRSA growth over 24 hours compared to cannabinoid alone (MRSA (strain USA300) [1]; [7]): substantive decrease
C=C(C)[C@@H]1CCC(C)=C[C@H]1c1c(O)cc(CCCCC)c(C(=O)O)c1O [CBDA, cannabidiolic acid] | 2 | no improved antibiotic affect | 24 | 24 | ≤ 4 | 24 | ≤ 6 | failed to achieve any inhibitory effect | failed to achieve any inhibition | fail to achieve any detectable inhibition | 0.73 | 0.52 | potentiation | – | – | – | – | – | – | – | interaction (interpretation of FICI) (E. coli strain K12; [9]): potentiation
CCCCCc1cc(O)c(C/C=C(\C)CCC=C(C)C)c(O)c1 [CBG, cannabigerol] | 0.625 | partially synergistic | – | – | – | – | – | – | – | – | 1.25 | 1 | not observed | highly comparable bactericidal effect | returned to levels equal to that of 0×MIC treatment | rapid, full bactericidal effect | 2 | 24 | – | 2 | FICI (MRSA (USA300); Silver Nanoparticles in combination with the cannabinoid): 0.625; interaction (interpretation of FICI) (MRSA (USA300); [9]): partial synergy; time for which bactericidal effect persisted (MRSA (strain USA300) [1]): 24 h; kill-curve effect (CFU) (MRSA (strain USA300) [1]; cannabinoid ¼×MIC + silver nitrate 5 and 8 mg/L): perceptibly bactericidal; kill-curve effect (CFU) (MRSA (strain USA300) [1]; cannabinoid ½×MIC + AgNP 1/160×MIC (0.25 mg/L)): bactericidal effect which was greater than that seen with ½×MIC CBG alone; kill-curve effect (CFU) (MRSA (strain USA300) [1]; [10]): bactericidal effect; time for which bactericidal effect remained (MRSA (strain USA300) [1]; [10]): up to 6 hours; time of onset of bactericidal effect (MRSA (strain USA300) [1]; [10]): 2 h; kill-curve effect (CFU) (MRSA (strain USA300) [1]; [11]): fully bactericidal effect; time of onset of bactericidal effect (MRSA (strain USA300) [1]; [11]): 2 h; time through which bactericidal effect remained (MRSA (strain USA300) [1]; [11]): 24 h; antibiotic effect of combination compared with silver nanoparticles alone (MRSA (strain USA 300)): increased antibiotic effect; inhibition of bacterial growth (ring) (MRSA (strain USA 300)): some level of inhibition
O=[N+]([O-])[O-].[Ag+] [silver nitrate, reference compound] | – | – | – | – | – | – | – | – | – | – | – | – | – | – | – | – | – | – | 16 | – | bacterial growth at 24 hours (MRSA (strain USA300) [1]; silver nitrate alone, 1 mg/L): full bacterial growth had occurred; duration of bacterial growth inhibition (MRSA (strain USA300) [1]; silver nitrate alone, 5 mg/L): 4 h; duration of bacterial growth inhibition (MRSA (strain USA300) [1]; silver nitrate alone, 8 mg/L): 6 h; inhibition of bacterial growth (ring) (MRSA (strain USA 300)): some level of inhibition; inhibition of bacterial growth (ring) (MRSA (strain USA 300); listed as Silver nitrate): strong inhibition
